Each block holds one compound with its values, some of them ahead of it.
What was measured:
[1] = Phase III clinical trial (N=287); cited from earlier work
[2] = Clinical trial study of tablets containing compound 11A: fasting blood glucose and safety; type: in vivo, human
Method: The embodiments were all derived from a clinical trial study. The subjects were screened and eligible to enter groups according to the entry criteria specified in the clinical protocol. The test drug was administered orally on day 1, and adverse events and combined administration were observed and recorded after administration. After safety evaluation was conducted on day 7 of the single administration period, the subjects received continuous administration of the test drug until the subjects withdrew from the clinical trial. Safety assessments were conducted during the clinical trial according to the time specified in the clinical protocol.
Embodiments 2 to 9 were derived from an ongoing clinical trial study with dose groups of 0.1 mg, 0.2 mg, 0.4 mg, 0.5 mg, 0.7 mg, 0.9 mg, 1.1 mg, and 1.4 mg.

[3] = Bioavailability experiments (pharmacokinetics) in beagle dogs; type: in vivo; settings: male and female beagle dogs
Method: Bioavailability Experiments
During the experimental period, animals were housed in single cages with animal identification codes marked on the cage tags. The 12 non-naïve beagle dogs (6/sex) were randomly divided into 2 groups (3/sex/group).
(§1) (1) Non-naïve beagle dogs were administered intravenously (solvent 50% PEG400+50% PBS) at a dose volume of 2 mL/kg per dog (dose of 0.1 mg/kg per dog), and then blood was collected to measure the plasma drug concentration of non-naïve beagle dogs at different time points of 15 minutes, 30 minutes, 1 hour, 2 hours, 4 hours, 6 hours, 8 hours, and 24 hours.
as §1, with “(2)” for “(1)”, “orally” for “intravenously (solvent 50% PEG400+50% PBS)”, “1 tablet” for “2 mL/kg”, “0.5 mg” for “0.1 mg/kg”, “hours; the oral bioavailability of tablets was calculated.” for “hours.”
Plasma drug concentration data was processed in a non-compartment model using WinNonlin™ Version 6.2.1 (Pharsight, Mountain View, Calif.) pharmacokinetic software. The peak concentration (Cmax), peak time (Tmax) and quantifiable time were directly read out from the plasma drug concentration-time diagram.
The following pharmacokinetic parameters were calculated using the log-linear trapezoidal method: elimination phase half-life (T1/2), apparent volume of distribution (Vdss) and clearance rate (CL), mean residence time of the drug from 0 to the end time point in vivo (MRT0-last), mean residence time of the drug from 0 to infinite time in vivo (MRT0-inf), the area under the time-plasma concentration curve from 0 to the end time point (AUC0-last), the area under the time-plasma concentration curve from 0 to infinite time (AUC0-inf), initial concentration (C0).

SMILES: Cc1nc(NC(=O)N2CCC[C@H]2C(N)=O)sc1-c1ccnc(C(C)(C)C(F)(F)F)c1 [Alpelisib]
diarrhea incidence [1]: 57.7%
diarrhea incidence above grade 3 [1]: 6.7%
nausea incidence [1]: 44.7%
nausea incidence above grade 3 [1]: 2.5%
vomiting incidence [1]: 27.1%
vomiting incidence above grade 3 [1]: 0.7%

Vd ([3]; both sexes, dog, plasma, single intravenous injection 0.1 mg/kg, read-out: apparent volume of distribution (Vdss)): 6.16 ± 1.91 L/kg
AUC(0-t) ([3]; both sexes, dog, plasma, single intravenous injection 0.1 mg/kg, read-out: area under the curve AUC0-last): 0.114 ± 0.0276 µM·h
half-life ([3]; both sexes, dog, plasma, single intravenous injection 0.1 mg/kg, read-out: mean plasma elimination phase half-life Tin (converted)): 3.21 ± 1.81 h
clearance ([3]; both sexes, dog, plasma, single intravenous injection 0.1 mg/kg, read-out: plasma clearance rate (CL)): 24.6 ± 6.66 mL/min/kg
bioavailability ([3]; both sexes, dog, plasma, single oral administration of tablet containing 0.5 mg of 11A (prescription of embodiment 1)): 80.9%
Cmax ([3]; both sexes, dog, plasma, single oral administration of tablet containing 0.5 mg of 11A (prescription of embodiment 1), read-out: peak concentration (Cmax)): 11.1 ± 2.08 nM
peak times ([3]; single oral administration of tablet containing 0.5 mg of 11A (prescription of embodiment 1)): 1.00 ± 0.00 h
SMILES: COCCOc1cnc2ccc(-c3cnc(OC)c(NS(=O)(=O)c4sc(C)nc4C)c3)cn2c1=O [Compound 11A]
fasting blood glucose ([2]; Subject 1, tablet 0.1 mg once a day oral from Nov. 9, 2018, follow-up Mar. 14, 2019, baseline 5.64 mmol/L): 6.19 mmol/L
fasting blood glucose ([2]; Subject 2, tablet 0.2 mg once a day oral from Jan. 16, 2019, follow-up Jan. 23, 2019, baseline 5.81 mmol/L): 6.45 mmol/L
fasting blood glucose ([2]; Subject 3, tablet 0.4 mg once a day oral from May 30, 2019, follow-up Jun. 5, 2019, baseline 5.63 mmol/L): 6.99 mmol/L
fasting blood glucose ([2]; Subject 5, tablet 0.7 mg once a day oral from Nov. 7, 2019, follow-up Nov. 13, 2019, baseline 6.06 mmol/L): 8.37 mmol/L
fasting blood glucose ([2]; Subject 5, tablet 0.7 mg once a day oral from Nov. 7, 2019, follow-up Nov. 20, 2019, baseline 6.06 mmol/L): 9.44 mmol/L
fasting blood glucose ([2]; Subject 6, 0.7 mg tablet administered continuously again from Nov. 30, 2019, follow-up Dec. 4, 2019): 11.44 mmol/L
fasting blood glucose after stopping administration ([2]; Subject 6, 0.7 mg tablets stopped Nov. 27, 2019, measured Nov. 29, 2019): returned to normal
fasting blood glucose ([2]; Subject 6, tablet 0.7 mg once a day oral from Nov. 21, 2019, follow-up Nov. 27, 2019, baseline 5.87 mmol/L): 11.4 mmol/L
fasting blood glucose ([2]; Subject 7, tablet 0.7 mg once a day oral from Dec. 10, 2019, follow-up Jan. 20, 2020, baseline 5.92 mmol/L): 9.13 mmol/L
fasting blood glucose ([2]; Subject 8, tablet 1.1 mg once a day oral from Dec. 17, 2019 (so in the source), measured Dec. 23, 2020, baseline 6.87 mmol/L): 12.66 mmol/L
fasting blood glucose ([2]; Subject 9, tablet 1.4 mg once a day oral from Aug. 27, 2020, measured Sep. 2, 2020, baseline 5.94 mmol/L): 10.77 mmol/L
incidence of hyperglycemia ([2]; subjects of dose groups 0.1-1.4 mg, during the administering period): 80%
gastrointestinal side effects such as nausea, vomiting and diarrhea ([2]; the 8 subjects of embodiments 2 to 9): no significant gastrointestinal side effects
